What was measured:
Type in all cases: functional
HCT-116 = experiment: Cytotoxicity against human HCT116 cells after 48 hrs by trypan blue dye exclusion assay; details: HCT-116, 48 h
MDA-MB-231 = experiment: Cytotoxicity against human MDA-MB-231 cells after 48 hrs by trypan blue dye exclusion assay; details: MDA-MB-231, 48 h
U-251 = experiment: Cytotoxicity against human U251 cells after 48 hrs by trypan blue dye exclusion assay; details: U-251, 48 h
EKVX = experiment: Cytotoxicity against human EKVX cells after 48 hrs by trypan blue dye exclusion assay
RPMI-8226 = experiment: Cytotoxicity against human RPMI8226 cells after 48 hrs by trypan blue dye exclusion assay; details: RPMI-8226, 48 h
SK-MEL-2 = experiment: Cytotoxicity against human SK-MEL-2 cells after 48 hrs by trypan blue dye exclusion assay; details: SK-MEL-2, 48 h
PC-3 = experiment: Cytotoxicity against human PC3 cells after 48 hrs by trypan blue dye exclusion assay; details: PC-3, 48 h
M14 = experiment: Cytotoxicity against human M14 cells after 48 hrs by trypan blue dye exclusion assay; details: M14, 48 h
HCT-15 = experiment: Cytotoxicity against human HCT15 cells after 48 hrs by trypan blue dye exclusion assay; details: HCT-15, 48 h
LOX IMVI = experiment: Cytotoxicity against human LOXIMVI cells after 48 hrs by trypan blue dye exclusion assay
UO-31 = experiment: Cytotoxicity against human UO31 cells after 48 hrs by trypan blue dye exclusion assay; details: UO-31, 48 h
SNB-75 = experiment: Cytotoxicity against human SNB75 cells after 48 hrs by trypan blue dye exclusion assay; details: SNB-75, 48 h
NCI-H322M = experiment: Cytotoxicity against human NCI-H322M cells after 48 hrs by trypan blue dye exclusion assay
HOP-92 = experiment: Cytotoxicity against human HOP92 cells after 48 hrs by trypan blue dye exclusion assay; details: HOP-92, 48 h
SK-OV-3 = experiment: Cytotoxicity against human SKOV3 cells after 48 hrs by trypan blue dye exclusion assay; details: SK-OV-3, 48 h
MDA-MB-468 = experiment: Cytotoxicity against human MDA-MB-468 cells after 48 hrs by trypan blue dye exclusion assay; details: MDA-MB-468, 48 h
A498 = experiment: Cytotoxicity against human A498 cells after 48 hrs by trypan blue dye exclusion assay; details: A498, 48 h
NCI/ADR-RES = experiment: Cytotoxicity against human NCI/ADR-RES cells after 48 hrs by trypan blue dye exclusion assay
RXF 393 = experiment: Cytotoxicity against human RXF393 cells after 48 hrs by trypan blue dye exclusion assay; details: RXF 393, 48 h
SNB-19 = experiment: Cytotoxicity against human SNB19 cells after 48 hrs by trypan blue dye exclusion assay; details: SNB-19, 48 h
BT-549 = experiment: Cytotoxicity against human BT549 cells after 48 hrs by trypan blue dye exclusion assay; details: BT-549, 48 h
UACC-257 = experiment: Cytotoxicity against human UACC257 cells after 48 hrs by trypan blue dye exclusion assay; details: UACC-257, 48 h
K562 = experiment: Cytotoxicity against human K562 cells after 48 hrs by trypan blue dye exclusion assay; details: K562, 48 h
IGROV-1 = experiment: Cytotoxicity against human IGROV1 cells after 48 hrs by trypan blue dye exclusion assay; details: IGROV-1, 48 h
NCI-H226 = experiment: Cytotoxicity against human NCI-H226 cells after 48 hrs by trypan blue dye exclusion assay; details: NCI-H226, 48 h
HCC 2998 = experiment: Cytotoxicity against human HCC2998 cells after 48 hrs by trypan blue dye exclusion assay; details: HCC 2998, 48 h
NCI-H460 = experiment: Cytotoxicity against human NCI-H460 cells after 48 hrs by trypan blue dye exclusion assay; details: NCI-H460, 48 h
CCRF-CEM = experiment: Cytotoxicity against human CCRF-CEM cells after 48 hrs by trypan blue dye exclusion assay
NCI-H23 = experiment: Cytotoxicity against human NCI-H23 cells after 48 hrs by trypan blue dye exclusion assay; details: NCI-H23, 48 h
UACC-62 = experiment: Cytotoxicity against human UACC62 cells after 48 hrs by trypan blue dye exclusion assay; details: UACC-62, 48 h
SK-MEL-28 = experiment: Cytotoxicity against human SK-MEL-28 cells after 48 hrs by trypan blue dye exclusion assay; details: SK-MEL-28, 48 h
SF-295 = experiment: Cytotoxicity against human SF295 cells after 48 hrs by trypan blue dye exclusion assay; details: SF-295, 48 h
A549 = experiment: Cytotoxicity against human A549 cells after 48 hrs by trypan blue dye exclusion assay; details: A549, 48 h
SF-539 = experiment: Cytotoxicity against human SF539 cells after 48 hrs by trypan blue dye exclusion assay; details: SF-539, 48 h
DU-145 = experiment: Cytotoxicity against human DU145 cells after 48 hrs by trypan blue dye exclusion assay; details: DU-145, 48 h
HL-60(TB) = experiment: Cytotoxicity against human HL-60(TB) cells after 48 hrs by trypan blue dye exclusion assay; details: HL-60, 48 h
[1] = Cytotoxicity against human Hs 578T cells after 48 hrs by trypan blue dye exclusion assay
NCI-H522 = experiment: Cytotoxicity against human NCI-H522 cells after 48 hrs by trypan blue dye exclusion assay; details: NCI-H522, 48 h
SR = experiment: Cytotoxicity against human SR cells after 48 hrs by trypan blue dye exclusion assay
MDA-MB-435 = experiment: Cytotoxicity against human MDA-MB-435 cells after 48 hrs by trypan blue dye exclusion assay; details: MDA-MB-435, 48 h
CAKI-1 = experiment: Cytotoxicity against human CAKI-1 cells after 48 hrs by trypan blue dye exclusion assay; details: CAKI-1, 48 h
KM12 = experiment: Cytotoxicity against human KM12 cells after 48 hrs by trypan blue dye exclusion assay; details: KM12, 48 h
TK-10 = experiment: Cytotoxicity against human TK10 cells after 48 hrs by trypan blue dye exclusion assay; details: TK-10, 48 h
OVCAR-3 = experiment: Cytotoxicity against human OVCAR3 cells after 48 hrs by trypan blue dye exclusion assay; details: OVCAR-3, 48 h
OVCAR-8 = experiment: Cytotoxicity against human OVCAR8 cells after 48 hrs by trypan blue dye exclusion assay; details: OVCAR-8, 48 h
SW-620 = experiment: Cytotoxicity against human SW620 cells after 48 hrs by trypan blue dye exclusion assay; details: SW-620, 48 h
ACHN = experiment: Cytotoxicity against human ACHN cells after 48 hrs by trypan blue dye exclusion assay
SF-268 = experiment: Cytotoxicity against human SF268 cells after 48 hrs by trypan blue dye exclusion assay; details: SF-268, 48 h
HOP-62 = experiment: Cytotoxicity against human HOP62 cells after 48 hrs by trypan blue dye exclusion assay; details: HOP-62, 48 h
MOLT-4 = experiment: Cytotoxicity against human MOLT4 cells after 48 hrs by trypan blue dye exclusion assay; details: MOLT-4, 48 h
COLO 205 = experiment: Cytotoxicity against human COLO205 cells after 48 hrs by trypan blue dye exclusion assay; details: COLO 205, 48 h
SN12C = experiment: Cytotoxicity against human SN12C cells after 48 hrs by trypan blue dye exclusion assay
MCF7 = experiment: Cytotoxicity against human MCF7 cells after 48 hrs by trypan blue dye exclusion assay; details: MCF7, 48 h
OVCAR-4 = experiment: Cytotoxicity against human OVCAR4 cells after 48 hrs by trypan blue dye exclusion assay; details: OVCAR-4, 48 h
T47D = experiment: Cytotoxicity against human T47D cells after 48 hrs by trypan blue dye exclusion assay
786-0 = experiment: Cytotoxicity against human 786-0 cells after 48 hrs by trypan blue dye exclusion assay; details: 786-0, 48 h
Malme-3M = experiment: Cytotoxicity against human MALME-3M cells after 48 hrs by trypan blue dye exclusion assay
SK-MEL-5 = experiment: Cytotoxicity against human SK-MEL-5 cells after 48 hrs by trypan blue dye exclusion assay; details: SK-MEL-5, 48 h
HT-29 = experiment: Cytotoxicity against human HT-29 cells after 48 hrs by trypan blue dye exclusion assay; details: HT-29, 48 h

COc1cc([C@@H]2c3cc4c(cc3[C@H](O)[C@H]3COC(=O)[C@H]23)OCO4)cc(OC)c1OC [PODOFILOX]
GI50 (HCT-116): 10 nM | GI50 (MDA-MB-231): 10 nM | GI50 (U-251): 10.7 nM | GI50 (EKVX): 10 nM | GI50 (RPMI-8226): 10 nM | GI50 (SK-MEL-2): 14.9 nM | GI50 (PC-3): 10 nM | GI50 (M14): 13.1 nM | GI50 (HCT-15): 13.5 nM | GI50 (LOX IMVI): 10 nM | GI50 (UO-31): 16.6 nM | GI50 (SNB-75): 659 nM | GI50 (NCI-H322M): 10 nM | GI50 (HOP-92): 34.1 nM | GI50 (SK-OV-3): 10 nM | GI50 (MDA-MB-468): 10 nM | GI50 (A498): 10 nM | GI50 (NCI/ADR-RES): 10 nM | GI50 (RXF 393): 10 nM | GI50 (SNB-19): 10 nM | GI50 (BT-549): 10 nM | GI50 (UACC-257): 10 nM | GI50 (K562): 215 nM | GI50 (IGROV-1): 13.2 nM | GI50 (NCI-H226): 10 nM | GI50 (HCC 2998): 12.3 nM | GI50 (NCI-H460): 10.6 nM | GI50 (CCRF-CEM): 10 nM | GI50 (NCI-H23): 10 nM | GI50 (UACC-62): 10 nM | GI50 (SK-MEL-28): 10 nM | GI50 (SF-295): 10 nM | GI50 (A549): 13.8 nM | GI50 (SF-539): 10 nM | GI50 (DU-145): 10 nM | GI50 (HL-60(TB)): 10 nM | GI50 [1]: 10 nM | GI50 (NCI-H522): 10 nM | GI50 (SR): 10 nM | GI50 (MDA-MB-435): 10 nM | GI50 (CAKI-1): 89.7 nM | GI50 (KM12): 10 nM | GI50 (TK-10): 30.5 nM | GI50 (OVCAR-3): 11.3 nM | GI50 (OVCAR-8): 10 nM | GI50 (SW-620): 10 nM | GI50 (ACHN): 10 nM | GI50 (SF-268): 10 nM | GI50 (HOP-62): 21.1 nM | GI50 (MOLT-4): 10 nM | GI50 (COLO 205): 10 nM | GI50 (SN12C): 17.1 nM | GI50 (MCF7): 10 nM | GI50 (OVCAR-4): 17.5 nM | GI50 (T47D): 84500 nM | GI50 (786-0): 16.9 nM | GI50 (Malme-3M): 47300 nM | GI50 (SK-MEL-5): 10 nM | GI50 (HT-29): 10 nM

— ChEMBL document CHEMBL2010711, “Synthesis and comparative evaluation of 4-oxa- and 4-aza-podophyllotoxins as antiproliferative microtubule destabilizing agents” (Bioorg Med Chem Lett, 2012)
